Data taken from article PMC8401933 (Molecules, 2021).

Assays:
[1] = biological target: T1, CDK3 (Homo sapiens, UniProt Q00526); experiment: KINOMEscan binding; conditions: read-out: Percent Control
T1 construct: purchased Eurofins DiscoverX KINOMEscan

[2] = biological target: T2, GAK (Homo sapiens, UniProt O14976); experiment: KINOMEscan binding; conditions: read-out: Percent Control
T2 construct: purchased Eurofins DiscoverX KINOMEscan

[3] = biological target: T3, STK16 (Homo sapiens, UniProt O75716); experiment: KINOMEscan binding; conditions: read-out: Percent Control
T3 construct: purchased Eurofins DiscoverX KINOMEscan

[4] = biological target: T4, FRK (Homo sapiens, UniProt P42685); experiment: KINOMEscan binding; conditions: read-out: Percent Control
T4 construct: purchased Eurofins DiscoverX KINOMEscan

[5] = biological target: T5, AMPK-alpha2 (Homo sapiens, UniProt P54646); experiment: KINOMEscan binding; conditions: read-out: Percent Control
T5 construct: purchased Eurofins DiscoverX KINOMEscan

[6] = biological target: T6, MYLK (Homo sapiens, UniProt Q15746); experiment: KINOMEscan binding; conditions: read-out: Percent Control
T6 construct: purchased Eurofins DiscoverX KINOMEscan

[7] = biological target: T7, p38-alpha (Homo sapiens, UniProt Q16539); experiment: KINOMEscan binding; conditions: read-out: Percent Control
T7 construct: purchased Eurofins DiscoverX KINOMEscan

[8] = biological target: T8, TAOK3 (Homo sapiens, UniProt Q9H2K8); experiment: KINOMEscan binding; conditions: read-out: Percent Control
T8 construct: purchased Eurofins DiscoverX KINOMEscan

[9] = biological target: T9, TIE1 (Homo sapiens, UniProt P35590); experiment: KINOMEscan binding; conditions: read-out: Percent Control
T9 construct: purchased Eurofins DiscoverX KINOMEscan

[10] = biological target: T10, KIT-autoinhibited (Homo sapiens, UniProt P10721); experiment: KINOMEscan binding; conditions: read-out: Percent Control
T10 construct: purchased Eurofins DiscoverX KINOMEscan

[11] = biological target: T11, TYK2(JH1domain-catalytic) (Homo sapiens, UniProt P29597); experiment: KINOMEscan binding; conditions: read-out: Percent Control
T11 construct: TYK2(JH1domain-catalytic); purchased Eurofins DiscoverX KINOMEscan

[12] = biological target: T12, ABL1(Q252H)-phosphorylated (Homo sapiens, UniProt P00519, Q252H); experiment: KINOMEscan binding; conditions: read-out: Percent Control
T12 construct: purchased Eurofins DiscoverX KINOMEscan

[13] = biological target: T13, TSSK3 (Homo sapiens, UniProt Q96PN8); experiment: KINOMEscan binding; conditions: read-out: Percent Control
T13 construct: purchased Eurofins DiscoverX KINOMEscan

[14] = biological target: T14, FAK (Homo sapiens, UniProt Q05397); experiment: KINOMEscan binding; conditions: read-out: Percent Control
T14 construct: purchased Eurofins DiscoverX KINOMEscan

[15] = biological target: T15, TNK1 (Homo sapiens, UniProt Q13470); experiment: KINOMEscan binding; conditions: read-out: Percent Control
T15 construct: purchased Eurofins DiscoverX KINOMEscan

[16] = biological target: T16, PIK3CG (Homo sapiens, UniProt P48736); experiment: KINOMEscan binding; conditions: read-out: Percent Control
T16 construct: purchased Eurofins DiscoverX KINOMEscan

[17] = biological target: T17, EIF2AK1 (Homo sapiens, UniProt Q9BQI3); experiment: KINOMEscan binding; conditions: read-out: Percent Control
T17 construct: purchased Eurofins DiscoverX KINOMEscan

[18] = biological target: T18, PIK4CB (Homo sapiens, UniProt Q9UBF8); experiment: KINOMEscan binding; conditions: read-out: Percent Control
T18 construct: purchased Eurofins DiscoverX KINOMEscan

[19] = biological target: T19, RIOK2 (Homo sapiens, UniProt Q9BVS4); experiment: KINOMEscan binding; conditions: read-out: Percent Control
T19 construct: purchased Eurofins DiscoverX KINOMEscan

[20] = biological target: T20, DMPK2 (Homo sapiens, UniProt Q6DT37); experiment: KINOMEscan binding; conditions: read-out: Percent Control
T20 construct: purchased Eurofins DiscoverX KINOMEscan

[21] = biological target: T21, PIM3 (Homo sapiens, UniProt Q86V86); experiment: KINOMEscan binding; conditions: read-out: Percent Control
T21 construct: purchased Eurofins DiscoverX KINOMEscan

[22] = biological target: T22, TNK2 (Homo sapiens, UniProt Q07912); experiment: KINOMEscan binding; conditions: read-out: Percent Control
T22 construct: purchased Eurofins DiscoverX KINOMEscan

[23] = biological target: T23, ERK2 (Homo sapiens, UniProt P28482); experiment: KINOMEscan binding; conditions: read-out: Percent Control
T23 construct: purchased Eurofins DiscoverX KINOMEscan

[24] = test system: ROCK1; set-up: method as in PMID 18832915; conditions: cited from earlier work
[25] = biological target: T24, GSK3A (Homo sapiens, UniProt P49840); experiment: KINOMEscan binding; conditions: read-out: Percent Control
T24 construct: purchased Eurofins DiscoverX KINOMEscan

[26] = biological target: T25, JAK2(JH1domain-catalytic) (Homo sapiens, UniProt O60674); experiment: KINOMEscan binding; conditions: read-out: Percent Control
T25 construct: JAK2(JH1domain-catalytic); purchased Eurofins DiscoverX KINOMEscan

[27] = biological target: T26, NLK (Homo sapiens, UniProt Q9UBE8); experiment: KINOMEscan binding; conditions: read-out: Percent Control
T26 construct: purchased Eurofins DiscoverX KINOMEscan

[28] = biological target: T27, LKB1 (Homo sapiens, UniProt Q15831); experiment: KINOMEscan binding; conditions: read-out: Percent Control
T27 construct: purchased Eurofins DiscoverX KINOMEscan

[29] = biological target: T28, FLT3(D835Y) (Homo sapiens, UniProt P36888, D835Y); experiment: KINOMEscan binding; conditions: read-out: Percent Control
T28 construct: purchased Eurofins DiscoverX KINOMEscan

[30] = biological target: T29, ERK4 (Homo sapiens, UniProt P31152); experiment: KINOMEscan binding; conditions: read-out: Percent Control
T29 construct: purchased Eurofins DiscoverX KINOMEscan

[31] = biological target: T30, PFPK5(P.falciparum) (Plasmodium falciparum, UniProt P61075); experiment: KINOMEscan binding; conditions: read-out: Percent Control
T30 construct: purchased Eurofins DiscoverX KINOMEscan

[32] = biological target: T31, ERK3 (Homo sapiens, UniProt Q16659); experiment: KINOMEscan binding; conditions: read-out: Percent Control
T31 construct: purchased Eurofins DiscoverX KINOMEscan

[33] = biological target: T32, LIMK1 (Homo sapiens, UniProt P53667); experiment: KINOMEscan binding; conditions: read-out: Percent Control
T32 construct: purchased Eurofins DiscoverX KINOMEscan

[34] = biological target: T33, TAOK1 (Homo sapiens, UniProt Q7L7X3); experiment: KINOMEscan binding; conditions: read-out: Percent Control
T33 construct: purchased Eurofins DiscoverX KINOMEscan

[35] = biological target: T34, FLT3(N841I) (Homo sapiens, UniProt P36888, N841I); experiment: KINOMEscan binding; conditions: read-out: Percent Control
T34 construct: purchased Eurofins DiscoverX KINOMEscan

[36] = biological target: T35, GRK3 (Homo sapiens, UniProt P35626); experiment: KINOMEscan binding; conditions: read-out: Percent Control
T35 construct: purchased Eurofins DiscoverX KINOMEscan

[37] = biological target: T36, EPHB4 (Homo sapiens, UniProt P54760); experiment: KINOMEscan binding; conditions: read-out: Percent Control
T36 construct: purchased Eurofins DiscoverX KINOMEscan

[38] = biological target: T37, LTK (Homo sapiens, UniProt P29376); experiment: KINOMEscan binding; conditions: read-out: Percent Control
T37 construct: purchased Eurofins DiscoverX KINOMEscan

[39] = biological target: T38, ACVR1B (Homo sapiens, UniProt P36896); experiment: KINOMEscan binding; conditions: read-out: Percent Control
T38 construct: purchased Eurofins DiscoverX KINOMEscan

[40] = biological target: T39, AURKC (Homo sapiens, UniProt Q9UQB9); experiment: KINOMEscan binding; conditions: read-out: Percent Control
T39 construct: purchased Eurofins DiscoverX KINOMEscan

[41] = biological target: T40, AURKA (Homo sapiens, UniProt O14965); experiment: KINOMEscan binding; conditions: read-out: Percent Control
T40 construct: purchased Eurofins DiscoverX KINOMEscan

[42] = biological target: T41, ZAK (Homo sapiens, UniProt Q9NYL2); experiment: KINOMEscan binding; conditions: read-out: Percent Control
T41 construct: purchased Eurofins DiscoverX KINOMEscan

[43] = biological target: T42, ABL1(H396P)-phosphorylated (Homo sapiens, UniProt P00519, H396P); experiment: KINOMEscan binding; conditions: read-out: Percent Control
T42 construct: purchased Eurofins DiscoverX KINOMEscan

[44] = biological target: T43, DAPK1 (Homo sapiens, UniProt P53355); experiment: KINOMEscan binding; conditions: read-out: Percent Control
T43 construct: purchased Eurofins DiscoverX KINOMEscan

T4 sequence (P42685 whole entry): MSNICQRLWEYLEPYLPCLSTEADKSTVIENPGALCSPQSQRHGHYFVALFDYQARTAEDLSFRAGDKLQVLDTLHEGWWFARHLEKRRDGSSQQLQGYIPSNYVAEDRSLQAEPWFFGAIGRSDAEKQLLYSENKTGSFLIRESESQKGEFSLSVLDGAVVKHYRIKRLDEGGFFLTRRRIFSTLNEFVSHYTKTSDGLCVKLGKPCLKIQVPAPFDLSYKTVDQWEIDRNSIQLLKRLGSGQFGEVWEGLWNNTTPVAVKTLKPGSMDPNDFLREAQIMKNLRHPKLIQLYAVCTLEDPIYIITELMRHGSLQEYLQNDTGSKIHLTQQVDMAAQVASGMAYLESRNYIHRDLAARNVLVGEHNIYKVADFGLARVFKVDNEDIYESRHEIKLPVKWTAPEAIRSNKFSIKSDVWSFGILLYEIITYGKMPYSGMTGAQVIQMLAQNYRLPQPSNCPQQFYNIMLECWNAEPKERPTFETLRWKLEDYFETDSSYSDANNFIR
T25 sequence (O60674 840-1132 limits assumed): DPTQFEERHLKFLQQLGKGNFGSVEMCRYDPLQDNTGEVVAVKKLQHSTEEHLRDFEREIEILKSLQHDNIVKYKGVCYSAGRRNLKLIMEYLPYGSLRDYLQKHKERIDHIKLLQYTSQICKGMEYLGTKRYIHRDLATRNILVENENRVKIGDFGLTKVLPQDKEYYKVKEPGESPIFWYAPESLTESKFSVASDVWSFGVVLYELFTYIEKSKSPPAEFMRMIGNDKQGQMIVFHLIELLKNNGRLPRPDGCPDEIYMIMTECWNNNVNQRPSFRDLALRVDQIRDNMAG
T1 sequence (Q00526 whole entry): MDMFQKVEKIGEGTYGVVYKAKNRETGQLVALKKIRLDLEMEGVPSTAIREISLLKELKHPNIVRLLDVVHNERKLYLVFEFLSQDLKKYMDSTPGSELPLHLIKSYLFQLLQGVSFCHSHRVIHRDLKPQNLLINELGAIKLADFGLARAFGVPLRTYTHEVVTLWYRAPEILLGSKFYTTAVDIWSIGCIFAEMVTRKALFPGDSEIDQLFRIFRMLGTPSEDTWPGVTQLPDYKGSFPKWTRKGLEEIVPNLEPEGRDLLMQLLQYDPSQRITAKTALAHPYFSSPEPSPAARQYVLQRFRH
T15 sequence (Q13470 whole entry): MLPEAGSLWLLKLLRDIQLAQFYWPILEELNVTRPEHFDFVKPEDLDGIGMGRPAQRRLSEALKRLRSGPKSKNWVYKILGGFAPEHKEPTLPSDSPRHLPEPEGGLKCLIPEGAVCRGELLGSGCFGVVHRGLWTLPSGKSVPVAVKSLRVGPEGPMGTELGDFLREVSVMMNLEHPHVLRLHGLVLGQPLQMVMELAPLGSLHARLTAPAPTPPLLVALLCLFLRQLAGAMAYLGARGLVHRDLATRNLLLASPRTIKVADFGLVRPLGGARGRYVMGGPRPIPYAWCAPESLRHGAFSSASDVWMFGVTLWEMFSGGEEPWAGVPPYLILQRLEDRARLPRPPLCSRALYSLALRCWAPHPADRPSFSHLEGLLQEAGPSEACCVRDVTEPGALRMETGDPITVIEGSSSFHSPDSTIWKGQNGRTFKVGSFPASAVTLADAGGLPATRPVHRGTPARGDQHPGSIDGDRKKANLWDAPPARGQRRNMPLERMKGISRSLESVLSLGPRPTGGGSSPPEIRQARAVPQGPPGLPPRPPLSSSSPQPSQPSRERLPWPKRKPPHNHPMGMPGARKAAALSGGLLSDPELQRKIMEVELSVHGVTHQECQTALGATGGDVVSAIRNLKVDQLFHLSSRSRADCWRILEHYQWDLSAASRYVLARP
T33 sequence (Q7L7X3 whole entry): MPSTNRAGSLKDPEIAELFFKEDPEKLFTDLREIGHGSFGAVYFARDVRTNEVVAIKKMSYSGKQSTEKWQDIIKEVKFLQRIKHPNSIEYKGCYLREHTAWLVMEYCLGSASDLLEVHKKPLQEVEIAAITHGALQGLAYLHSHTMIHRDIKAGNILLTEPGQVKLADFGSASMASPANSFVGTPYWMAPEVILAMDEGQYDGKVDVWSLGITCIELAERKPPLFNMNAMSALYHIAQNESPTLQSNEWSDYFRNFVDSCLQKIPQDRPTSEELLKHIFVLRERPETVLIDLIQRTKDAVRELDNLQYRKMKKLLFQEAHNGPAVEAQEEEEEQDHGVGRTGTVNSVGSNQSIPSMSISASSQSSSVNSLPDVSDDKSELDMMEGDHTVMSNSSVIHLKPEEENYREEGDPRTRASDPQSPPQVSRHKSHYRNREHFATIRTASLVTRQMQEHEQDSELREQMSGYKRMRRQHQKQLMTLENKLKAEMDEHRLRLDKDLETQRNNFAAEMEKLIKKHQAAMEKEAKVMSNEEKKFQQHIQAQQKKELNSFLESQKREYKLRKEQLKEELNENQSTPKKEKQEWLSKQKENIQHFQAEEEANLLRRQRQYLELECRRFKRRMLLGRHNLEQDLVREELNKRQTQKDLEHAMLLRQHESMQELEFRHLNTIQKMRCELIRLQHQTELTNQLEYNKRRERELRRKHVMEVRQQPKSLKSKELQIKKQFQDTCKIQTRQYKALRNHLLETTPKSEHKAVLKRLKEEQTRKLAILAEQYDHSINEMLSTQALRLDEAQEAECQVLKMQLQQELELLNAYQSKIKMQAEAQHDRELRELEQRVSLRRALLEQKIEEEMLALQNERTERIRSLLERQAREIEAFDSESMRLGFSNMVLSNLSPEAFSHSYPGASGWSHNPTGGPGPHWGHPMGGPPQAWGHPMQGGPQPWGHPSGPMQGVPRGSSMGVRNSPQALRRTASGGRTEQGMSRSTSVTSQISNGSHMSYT
T7 sequence (Q16539 whole entry): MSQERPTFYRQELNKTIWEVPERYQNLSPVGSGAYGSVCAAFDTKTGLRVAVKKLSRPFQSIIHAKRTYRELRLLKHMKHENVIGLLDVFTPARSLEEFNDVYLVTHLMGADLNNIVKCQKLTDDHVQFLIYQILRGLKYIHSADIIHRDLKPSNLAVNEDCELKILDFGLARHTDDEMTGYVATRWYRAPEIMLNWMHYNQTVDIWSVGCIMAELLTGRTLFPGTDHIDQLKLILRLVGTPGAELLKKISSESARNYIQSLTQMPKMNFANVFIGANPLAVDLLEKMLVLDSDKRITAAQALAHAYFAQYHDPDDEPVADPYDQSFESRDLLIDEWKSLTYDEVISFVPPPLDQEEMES
T16 sequence (P48736 whole entry): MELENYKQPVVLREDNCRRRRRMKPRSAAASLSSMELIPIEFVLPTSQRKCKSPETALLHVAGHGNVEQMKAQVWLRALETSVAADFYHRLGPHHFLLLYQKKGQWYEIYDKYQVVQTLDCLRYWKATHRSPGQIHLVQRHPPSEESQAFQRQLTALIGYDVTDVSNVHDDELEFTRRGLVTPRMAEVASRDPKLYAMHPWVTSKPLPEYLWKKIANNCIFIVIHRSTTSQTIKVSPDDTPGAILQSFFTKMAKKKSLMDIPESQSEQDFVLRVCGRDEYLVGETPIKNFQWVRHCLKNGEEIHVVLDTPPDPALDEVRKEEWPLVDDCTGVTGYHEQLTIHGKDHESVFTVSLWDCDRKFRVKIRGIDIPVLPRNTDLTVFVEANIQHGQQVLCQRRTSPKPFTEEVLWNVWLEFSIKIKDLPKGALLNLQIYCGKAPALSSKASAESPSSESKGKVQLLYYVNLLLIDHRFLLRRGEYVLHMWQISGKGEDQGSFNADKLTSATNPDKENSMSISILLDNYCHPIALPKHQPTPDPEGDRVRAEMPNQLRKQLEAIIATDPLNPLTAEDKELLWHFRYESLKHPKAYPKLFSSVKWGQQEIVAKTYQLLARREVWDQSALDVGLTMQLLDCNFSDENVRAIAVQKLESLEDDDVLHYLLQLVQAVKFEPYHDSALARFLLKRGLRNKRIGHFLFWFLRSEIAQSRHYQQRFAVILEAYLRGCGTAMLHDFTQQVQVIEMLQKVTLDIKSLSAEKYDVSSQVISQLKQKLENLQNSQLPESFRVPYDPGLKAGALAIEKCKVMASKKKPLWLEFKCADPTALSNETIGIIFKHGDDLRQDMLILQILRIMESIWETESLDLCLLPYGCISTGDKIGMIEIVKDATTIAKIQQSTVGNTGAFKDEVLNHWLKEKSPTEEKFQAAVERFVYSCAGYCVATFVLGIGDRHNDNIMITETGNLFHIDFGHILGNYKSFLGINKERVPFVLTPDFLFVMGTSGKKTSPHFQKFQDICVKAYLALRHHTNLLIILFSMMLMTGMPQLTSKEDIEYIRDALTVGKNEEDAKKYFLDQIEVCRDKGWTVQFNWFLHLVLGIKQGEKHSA
T19 sequence (Q9BVS4 whole entry): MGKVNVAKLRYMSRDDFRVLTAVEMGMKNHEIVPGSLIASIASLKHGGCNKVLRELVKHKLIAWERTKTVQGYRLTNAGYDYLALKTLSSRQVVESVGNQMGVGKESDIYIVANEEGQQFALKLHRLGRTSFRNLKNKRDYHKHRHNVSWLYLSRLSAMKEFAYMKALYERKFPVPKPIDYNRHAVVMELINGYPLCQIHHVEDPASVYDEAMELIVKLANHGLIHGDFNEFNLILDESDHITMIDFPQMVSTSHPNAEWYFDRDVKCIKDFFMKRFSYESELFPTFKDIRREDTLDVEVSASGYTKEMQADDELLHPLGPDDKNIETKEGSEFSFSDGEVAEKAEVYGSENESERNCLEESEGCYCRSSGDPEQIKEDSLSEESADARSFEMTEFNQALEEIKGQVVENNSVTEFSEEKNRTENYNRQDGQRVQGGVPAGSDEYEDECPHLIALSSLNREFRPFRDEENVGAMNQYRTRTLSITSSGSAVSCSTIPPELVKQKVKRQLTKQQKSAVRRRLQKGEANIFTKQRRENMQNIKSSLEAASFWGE

For `CC(C)NC(=O)COc1cccc(-c2nc(Nc3ccc4[nH]ncc4c3)c3ccccc3n2)c1` [KD025, 2-(3-(4-((1H-indazol-5-yl)amino)quinazolin-2-yl)phenoxy)-N-isopropylacetamide], the remaining binding at 10 µM [1] was 92%, the remaining binding at 10 µM [2] was 10% and the remaining binding at 10 µM [3] was 62%. For the same compound, the remaining binding at 10 µM [4] was 78%, the remaining binding at 10 µM [5] was 75% and the remaining binding at 10 µM [6] was 66%. The remaining binding at 10 µM [7] was 100%, the remaining binding at 10 µM [8] was 89% and the remaining binding at 10 µM [9] was 63%. It also gave a remaining binding at 10 µM [10] of 78%, a remaining binding at 10 µM [11] of 95% and a remaining binding at 10 µM [12] of 100%. The remaining binding at 10 µM [13] was 77%, the remaining binding at 10 µM [14] was 92% and the remaining binding at 10 µM [15] was 88%. For the same compound, the remaining binding at 10 µM [16] was 82%, the remaining binding at 10 µM [17] was 77% and the remaining binding at 10 µM [18] was 92%. It also gave a remaining binding at 10 µM [19] of 60%, a remaining binding at 10 µM [20] of 3.9% and a remaining binding at 10 µM [21] of 63%. For the same compound, the remaining binding at 10 µM [22] was 82%, the remaining binding at 10 µM [23] was 79% and the IC50 [24] was 24 µM. The remaining binding at 10 µM [25] was 100%, the remaining binding at 10 µM [26] was 51% and the remaining binding at 10 µM [27] was 80%. For the same compound, the remaining binding at 10 µM [28] was 63%, the remaining binding at 10 µM [29] was 46% and the remaining binding at 10 µM [30] was 100%. For the same compound, the remaining binding at 10 µM [31] was 100%, the remaining binding at 10 µM [32] was 64% and the remaining binding at 10 µM [33] was 92%. For the same compound, the remaining binding at 10 µM [34] was 71%, the remaining binding at 10 µM [35] was 19% and the remaining binding at 10 µM [36] was 84%. It also gave a remaining binding at 10 µM [37] of 95%, a remaining binding at 10 µM [38] of 49% and a remaining binding at 10 µM [39] of 91%. For the same compound, the remaining binding at 10 µM [40] was 18%, the remaining binding at 10 µM [41] was 75% and the remaining binding at 10 µM [42] was 77%. For the same compound, the remaining binding at 10 µM [43] was 82% and the remaining binding at 10 µM [44] was 85%.
